In ChEMBL document CHEMBL1136863, “Identification and SAR of squarate inhibitors of mitogen activated protein kinase-activated protein kinase 2 (MK-2)” (Bioorg Med Chem, 2009) one finds IC50 and inhibition data, which are given here for 14 molecules.

pIC50: −log10 of the molar value.

Data set [1] addresses Tyrosine-protein kinase Fyn (Homo sapiens, UniProt P06241). Briefly: Inhibition of FYN.
A further data set deals with Cytochrome P450 2C9 (Homo sapiens, UniProt P11712). Description: Inhibition of CYP2C9. Format: ADME.
Cytochrome P450 2C9, sequence (P11712 whole entry): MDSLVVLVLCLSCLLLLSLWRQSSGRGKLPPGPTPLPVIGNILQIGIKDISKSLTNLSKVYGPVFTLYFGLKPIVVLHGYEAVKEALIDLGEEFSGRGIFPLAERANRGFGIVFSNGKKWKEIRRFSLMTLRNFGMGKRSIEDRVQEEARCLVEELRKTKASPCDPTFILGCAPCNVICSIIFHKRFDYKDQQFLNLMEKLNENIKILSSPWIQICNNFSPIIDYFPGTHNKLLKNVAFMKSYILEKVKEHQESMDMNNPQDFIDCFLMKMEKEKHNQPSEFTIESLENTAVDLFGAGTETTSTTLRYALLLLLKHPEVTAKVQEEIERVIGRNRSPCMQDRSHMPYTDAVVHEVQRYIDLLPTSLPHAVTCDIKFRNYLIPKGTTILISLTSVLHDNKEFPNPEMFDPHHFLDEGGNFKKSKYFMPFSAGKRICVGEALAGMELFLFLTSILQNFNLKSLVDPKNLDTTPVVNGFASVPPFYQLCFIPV
Data set [2] has as its target Ribosomal protein S6 kinase alpha-1 (Homo sapiens, UniProt Q15418). Description: Inhibition of RSK1.
The target of data set [3] is Platelet-derived growth factor receptor alpha (Homo sapiens, UniProt P16234). Description: Inhibition of PDGFRalpha.
Platelet-derived growth factor receptor alpha, sequence (P16234 whole entry): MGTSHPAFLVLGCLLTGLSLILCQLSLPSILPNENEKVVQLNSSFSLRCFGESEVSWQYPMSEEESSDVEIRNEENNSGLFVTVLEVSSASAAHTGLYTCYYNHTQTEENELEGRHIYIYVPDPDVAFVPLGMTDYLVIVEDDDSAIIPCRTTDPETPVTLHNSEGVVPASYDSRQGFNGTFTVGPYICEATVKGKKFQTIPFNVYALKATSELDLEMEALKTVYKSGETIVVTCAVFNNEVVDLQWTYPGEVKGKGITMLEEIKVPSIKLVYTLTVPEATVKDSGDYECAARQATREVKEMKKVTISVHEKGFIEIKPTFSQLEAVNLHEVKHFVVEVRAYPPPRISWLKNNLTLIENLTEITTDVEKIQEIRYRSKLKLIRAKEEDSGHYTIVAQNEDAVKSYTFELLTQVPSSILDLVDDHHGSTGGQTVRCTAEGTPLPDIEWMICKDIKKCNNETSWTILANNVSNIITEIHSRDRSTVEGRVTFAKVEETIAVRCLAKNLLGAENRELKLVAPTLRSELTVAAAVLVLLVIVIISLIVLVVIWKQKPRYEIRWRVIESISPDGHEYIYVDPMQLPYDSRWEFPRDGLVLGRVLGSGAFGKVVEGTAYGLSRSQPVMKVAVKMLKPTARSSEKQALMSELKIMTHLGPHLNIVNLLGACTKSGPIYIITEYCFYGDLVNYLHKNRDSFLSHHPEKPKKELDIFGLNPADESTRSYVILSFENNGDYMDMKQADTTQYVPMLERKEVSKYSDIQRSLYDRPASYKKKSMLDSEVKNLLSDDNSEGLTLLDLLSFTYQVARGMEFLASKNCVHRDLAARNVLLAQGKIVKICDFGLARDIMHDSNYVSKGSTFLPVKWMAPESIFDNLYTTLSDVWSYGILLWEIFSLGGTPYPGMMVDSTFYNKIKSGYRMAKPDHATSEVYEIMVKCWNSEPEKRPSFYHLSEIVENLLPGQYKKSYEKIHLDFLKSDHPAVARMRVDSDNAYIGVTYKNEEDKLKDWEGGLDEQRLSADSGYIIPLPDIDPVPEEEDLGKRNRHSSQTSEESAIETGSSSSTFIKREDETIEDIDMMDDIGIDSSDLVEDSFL
In a further data set the target is Cytochrome P450 3A4 (Homo sapiens, UniProt P08684). Briefly: Inhibition of CYP3A4. The class given is ADME.
Cytochrome P450 3A4, sequence (P08684 whole entry): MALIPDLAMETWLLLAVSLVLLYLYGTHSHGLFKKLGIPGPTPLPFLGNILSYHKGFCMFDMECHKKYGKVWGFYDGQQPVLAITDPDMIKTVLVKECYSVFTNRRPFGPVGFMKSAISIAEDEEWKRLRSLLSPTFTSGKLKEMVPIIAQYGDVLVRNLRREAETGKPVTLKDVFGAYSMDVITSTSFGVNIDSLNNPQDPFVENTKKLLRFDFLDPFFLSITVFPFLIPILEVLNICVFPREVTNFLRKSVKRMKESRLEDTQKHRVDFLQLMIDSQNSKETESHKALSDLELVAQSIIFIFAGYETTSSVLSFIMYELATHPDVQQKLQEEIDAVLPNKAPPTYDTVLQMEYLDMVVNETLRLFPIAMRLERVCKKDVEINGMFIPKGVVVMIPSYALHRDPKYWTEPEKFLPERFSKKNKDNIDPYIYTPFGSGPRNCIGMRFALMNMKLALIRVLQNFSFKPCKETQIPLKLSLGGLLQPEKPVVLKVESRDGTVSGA
In another data set the test system is THP-1. Description: Inhibition of LPS-stimulated TNFalpha production in human THP1 cells.
The target of data set [4] is Mitogen-activated protein kinase 14 (Homo sapiens, UniProt Q16539). Briefly: Inhibition of p38alpha.
Mitogen-activated protein kinase 14, sequence (Q16539 whole entry): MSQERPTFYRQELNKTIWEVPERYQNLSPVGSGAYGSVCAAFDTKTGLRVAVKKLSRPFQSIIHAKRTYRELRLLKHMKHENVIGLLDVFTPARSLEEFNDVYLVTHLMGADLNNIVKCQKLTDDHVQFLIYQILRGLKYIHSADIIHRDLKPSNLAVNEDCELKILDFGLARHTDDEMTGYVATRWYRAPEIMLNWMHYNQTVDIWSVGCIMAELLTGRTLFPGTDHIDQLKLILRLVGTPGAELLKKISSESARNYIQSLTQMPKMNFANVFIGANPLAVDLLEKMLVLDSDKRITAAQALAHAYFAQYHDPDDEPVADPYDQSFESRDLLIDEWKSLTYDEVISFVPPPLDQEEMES
The next data set addresses Cytochrome P450 2D6 (Homo sapiens, UniProt P10635). Briefly: Inhibition of CYP2D6. Format: ADME.
Data set [5] deals with Proto-oncogene tyrosine-protein kinase Src (Homo sapiens, UniProt P12931). Description: Inhibition of SRC.
Proto-oncogene tyrosine-protein kinase Src, sequence (P12931 2-536 limits assumed): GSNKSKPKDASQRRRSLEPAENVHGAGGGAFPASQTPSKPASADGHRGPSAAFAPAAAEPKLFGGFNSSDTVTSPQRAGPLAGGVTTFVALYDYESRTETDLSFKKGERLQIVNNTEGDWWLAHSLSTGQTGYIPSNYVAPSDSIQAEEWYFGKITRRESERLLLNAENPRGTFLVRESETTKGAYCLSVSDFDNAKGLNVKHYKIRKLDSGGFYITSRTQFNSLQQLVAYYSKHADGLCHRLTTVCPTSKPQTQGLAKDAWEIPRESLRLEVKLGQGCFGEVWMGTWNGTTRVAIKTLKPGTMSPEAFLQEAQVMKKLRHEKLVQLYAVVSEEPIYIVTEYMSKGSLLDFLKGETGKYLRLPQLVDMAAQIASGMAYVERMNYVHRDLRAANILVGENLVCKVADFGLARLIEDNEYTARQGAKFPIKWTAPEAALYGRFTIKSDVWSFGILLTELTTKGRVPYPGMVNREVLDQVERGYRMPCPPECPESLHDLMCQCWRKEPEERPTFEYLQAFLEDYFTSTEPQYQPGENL
Data set [6] deals with T1, Inhibitor of nuclear factor kappa-B kinase subunit alpha (Homo sapiens, UniProt O15111).
T1 sequence (O15111 whole entry): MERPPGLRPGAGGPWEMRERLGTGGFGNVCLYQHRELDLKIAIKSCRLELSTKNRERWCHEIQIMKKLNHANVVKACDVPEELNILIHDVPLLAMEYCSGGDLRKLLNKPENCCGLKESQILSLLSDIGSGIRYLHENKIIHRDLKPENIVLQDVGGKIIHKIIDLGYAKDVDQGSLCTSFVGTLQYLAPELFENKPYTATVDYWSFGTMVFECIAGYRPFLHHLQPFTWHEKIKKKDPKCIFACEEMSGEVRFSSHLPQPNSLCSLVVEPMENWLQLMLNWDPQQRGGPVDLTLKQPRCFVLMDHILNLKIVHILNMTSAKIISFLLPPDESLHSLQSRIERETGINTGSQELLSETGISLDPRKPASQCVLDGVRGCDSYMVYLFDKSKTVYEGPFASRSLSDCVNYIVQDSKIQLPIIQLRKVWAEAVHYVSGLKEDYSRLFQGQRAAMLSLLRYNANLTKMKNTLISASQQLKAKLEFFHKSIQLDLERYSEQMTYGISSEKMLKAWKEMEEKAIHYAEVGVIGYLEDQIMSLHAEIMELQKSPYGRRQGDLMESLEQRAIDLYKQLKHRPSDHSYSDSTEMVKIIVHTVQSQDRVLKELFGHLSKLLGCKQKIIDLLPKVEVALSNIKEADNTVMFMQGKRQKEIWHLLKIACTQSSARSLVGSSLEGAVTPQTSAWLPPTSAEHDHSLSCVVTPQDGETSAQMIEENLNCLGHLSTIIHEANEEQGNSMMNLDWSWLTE
Description: Inhibition of IKKalpha.

The target in data set [7] is Protein kinase C alpha type (Homo sapiens, UniProt P17252). Briefly: Inhibition of PKCalpha.
In data set [8] the target is Mitogen-activated protein kinase 1 (Homo sapiens, UniProt P28482). Description: Inhibition of ERK2.
Data set [9] deals with Casein kinase I isoform gamma-1 (Homo sapiens, UniProt Q9HCP0). Description: Inhibition of CK1-gamma1.
For another data set, the target named is Aurora kinase B (Homo sapiens, UniProt Q96GD4). Briefly: Inhibition of Aurora B.
Aurora kinase B, sequence (Q96GD4 whole entry): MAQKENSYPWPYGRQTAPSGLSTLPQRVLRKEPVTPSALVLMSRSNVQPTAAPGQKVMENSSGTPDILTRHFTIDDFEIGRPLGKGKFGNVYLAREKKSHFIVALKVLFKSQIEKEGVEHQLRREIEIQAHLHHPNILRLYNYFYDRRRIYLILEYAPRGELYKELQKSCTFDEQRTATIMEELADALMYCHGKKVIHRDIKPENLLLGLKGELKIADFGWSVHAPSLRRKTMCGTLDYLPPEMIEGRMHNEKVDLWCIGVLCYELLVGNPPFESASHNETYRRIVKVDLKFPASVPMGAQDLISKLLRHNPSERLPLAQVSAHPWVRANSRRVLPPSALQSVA
In data set [10] the target is MAP kinase-activated protein kinase 2 (Homo sapiens, UniProt P49137).
MAP kinase-activated protein kinase 2, sequence (P49137 whole entry): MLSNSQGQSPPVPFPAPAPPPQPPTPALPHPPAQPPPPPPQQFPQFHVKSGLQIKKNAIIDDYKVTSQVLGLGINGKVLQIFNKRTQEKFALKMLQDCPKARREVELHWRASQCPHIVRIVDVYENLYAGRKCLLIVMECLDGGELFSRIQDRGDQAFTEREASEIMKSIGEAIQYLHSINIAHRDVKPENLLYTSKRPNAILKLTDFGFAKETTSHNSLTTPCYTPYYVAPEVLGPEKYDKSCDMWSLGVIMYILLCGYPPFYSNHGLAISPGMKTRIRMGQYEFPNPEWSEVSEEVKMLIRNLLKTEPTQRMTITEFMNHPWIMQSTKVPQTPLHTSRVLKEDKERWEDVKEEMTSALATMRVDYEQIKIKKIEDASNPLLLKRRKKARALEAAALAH
Description: Inhibition of human recombinant MK2
Data set [11] deals with Rho-associated protein kinase 1 (Homo sapiens, UniProt Q13464). Briefly: Inhibition of ROCK1.
The target of the next data set is CYP2D6 (Homo sapiens, UniProt P10635). Description: Inhibition of CYP2D6 at 3 uM. The class given is ADME.
The next data set deals with CYP3A4 (Homo sapiens, UniProt P08684). Description: Inhibition of CYP3A4 at 3 uM. The class given is ADME.
The next data set has as its target CYP2C9 (Homo sapiens, UniProt P11712). Briefly: Inhibition of CYP2C9 at 3 uM. The class given is ADME.

Tyrosine-protein kinase Fyn, sequence (P06241 whole entry): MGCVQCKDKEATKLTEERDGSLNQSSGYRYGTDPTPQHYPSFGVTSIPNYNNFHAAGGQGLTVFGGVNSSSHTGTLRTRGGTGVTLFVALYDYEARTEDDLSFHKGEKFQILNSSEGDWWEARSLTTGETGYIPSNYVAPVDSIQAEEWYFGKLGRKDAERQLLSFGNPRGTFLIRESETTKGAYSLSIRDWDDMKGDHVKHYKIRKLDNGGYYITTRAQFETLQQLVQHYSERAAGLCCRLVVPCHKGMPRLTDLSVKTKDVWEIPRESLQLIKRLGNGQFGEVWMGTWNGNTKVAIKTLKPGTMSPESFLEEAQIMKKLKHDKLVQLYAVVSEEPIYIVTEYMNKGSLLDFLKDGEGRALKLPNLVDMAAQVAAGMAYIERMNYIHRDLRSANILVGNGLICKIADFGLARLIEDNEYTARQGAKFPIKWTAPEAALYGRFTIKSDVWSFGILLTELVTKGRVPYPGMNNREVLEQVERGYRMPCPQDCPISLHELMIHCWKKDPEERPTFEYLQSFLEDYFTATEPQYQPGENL
Ribosomal protein S6 kinase alpha-1, sequence (Q15418 whole entry): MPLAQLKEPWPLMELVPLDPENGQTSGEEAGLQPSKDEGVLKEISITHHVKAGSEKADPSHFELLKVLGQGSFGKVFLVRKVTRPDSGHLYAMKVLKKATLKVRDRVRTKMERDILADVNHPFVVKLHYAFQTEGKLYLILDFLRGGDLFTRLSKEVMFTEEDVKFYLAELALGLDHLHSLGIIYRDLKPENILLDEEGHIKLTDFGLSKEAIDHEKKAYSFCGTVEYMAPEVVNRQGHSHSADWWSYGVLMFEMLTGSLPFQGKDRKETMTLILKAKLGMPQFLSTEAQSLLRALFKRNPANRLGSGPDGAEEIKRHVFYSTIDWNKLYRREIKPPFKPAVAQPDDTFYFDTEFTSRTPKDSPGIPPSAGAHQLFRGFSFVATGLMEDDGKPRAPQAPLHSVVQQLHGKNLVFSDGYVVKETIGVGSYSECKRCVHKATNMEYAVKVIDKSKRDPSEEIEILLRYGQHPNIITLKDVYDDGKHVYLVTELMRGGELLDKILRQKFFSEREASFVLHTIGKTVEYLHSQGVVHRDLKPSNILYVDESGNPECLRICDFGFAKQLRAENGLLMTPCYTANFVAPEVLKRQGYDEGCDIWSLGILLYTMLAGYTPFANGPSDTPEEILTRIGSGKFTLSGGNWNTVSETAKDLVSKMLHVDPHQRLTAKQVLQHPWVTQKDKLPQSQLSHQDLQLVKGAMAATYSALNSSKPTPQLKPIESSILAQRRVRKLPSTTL

As to `C[C@@H](Nc1c(Nc2ccncc2)c(=O)c1=O)c1ccccc1`, the pIC50 in data set [1] is < 4.30; at Cytochrome P450 2C9, 6.22; in data set [2] it was 6.09; in [3], 4.39; on Cytochrome P450 3A4, 5.89; in the data set on THP-1, 4.97. Further, the pIC50 is < 4.30 in [4]; 5.48 at Cytochrome P450 2D6; < 4.30 in data set [5]; < 4.30 in data set [6]; < 4.30 in data set [7].
For the molecule `NC(=O)C(Nc1c(Nc2ccncc2)c(=O)c1=O)c1ccccc1` (configuration not stated), the pIC50 is < 4.30 in data set [1]; 5.29 at Cytochrome P450 2C9; 6.11 in data set [2]; 4.36 in data set [3]; 5.07 against Cytochrome P450 3A4; < 4.40 in the data set with THP-1. The negative-log IC50 (pIC50) in [4] was < 4.30; in [8], 5.20; at Cytochrome P450 2D6, < 5.00; in data set [5], < 4.30; in data set [9], 6.28; in data set [6], < 4.30. The pIC50 against Aurora kinase B is 5.22; in [10], 5.35.
Molecule `CC(Nc1c(Nc2ccncc2)c(=O)c1=O)c1cccc(O)c1` (configuration not stated) gave a pIC50 in the data set on THP-1 of 4.47.
As to `C[C@H](c1ccccc1)N(C)c1c(Nc2ccncc2)c(=O)c1=O`, in data set [10], the pIC50 was < 4.00.
On the same count and under the same terms, the value for `C[C@@H](Nc1c(N(C)c2ccncc2)c(=O)c1=O)c1ccccc1` was < 4.00.
Regarding `C[C@@H](Nc1c(Nc2ccnc(-c3ccccc3F)c2)c(=O)c1=O)c1ccccc1`, the pIC50 in data set [1] was < 4.30; in data set [2], < 4.30; in data set [3], < 4.30; with THP-1, 5.66; in data set [4], 4.66; in [8] it was < 4.30. Also, the pIC50 in data set [5] was < 4.30; in data set [9] it was < 4.30; in [6] it was < 4.30; against Aurora kinase B, < 4.30; in data set [10], 5.24; in data set [11], < 4.30. For the same molecule, in data set [7], the pIC50 is < 4.30.
In the case of `C[C@@H](Nc1c(Nc2ccnc(Cl)c2)c(=O)c1=O)c1ccccc1`, the pIC50 in data set [10] is < 4.00.
For the molecule `C[C@@H](Nc1c(Nc2ccnc(Nc3ccncn3)c2)c(=O)c1=O)c1ccccc1`, in the data set on THP-1, the pIC50 is 5.96.
Regarding `C[C@@H](Nc1c(Nc2ccnc(-c3ccsc3)c2)c(=O)c1=O)c1ccccc1`, the pIC50 in data set [1] was 4.82; in data set [2] it was < 4.30; in data set [3] it was 4.44; in data set [4], < 4.30; in [8] it was < 4.30; in data set [5], < 4.30. Also, the pIC50 in [9] was 4.94; in [6], < 4.30; against Aurora kinase B it was 4.97; in data set [10], 5.27; in data set [11] it was < 4.30; in data set [7], < 4.30.
Regarding `C[C@@H](Nc1c(Nc2cccnc2)c(=O)c1=O)c1ccccc1`, the figures for the inhibition at 3 µM on CYP2D6, against CYP3A4 and at CYP2C9 were 26%, 16% and 1%, respectively. In [10], the pIC50 is < 4.00.
`NC(=O)C(Nc1c(Nc2ccncc2)c(=O)c1=O)c1cccc(O)c1` (configuration not stated): the pIC50 in data set [1] is < 4.30; against Cytochrome P450 2C9, 5.19; in data set [2], 6.54; in data set [3], 4.95; against Cytochrome P450 3A4, < 5.00; in the data set with THP-1, 4.77. Further, the pIC50 in [4] is < 4.30; in data set [8], 5.38; against Cytochrome P450 2D6, < 5.00; in data set [5], < 4.30; in data set [9] it was 6.80; in data set [6], < 4.30. The pIC50 on Aurora kinase B was 5.85; in data set [10] it was 6.41; in data set [11], 7.22; in [7], 4.47.
Consider `C[C@@H](Nc1c(Nc2ccncn2)c(=O)c1=O)c1ccccc1`, for which the pIC50 in data set [10] was < 4.00.
On to `C[C@@H](Nc1c(Nc2ccnc(-c3ccco3)c2)c(=O)c1=O)c1ccccc1`, for which the pIC50 in data set [1] was < 4.30; in data set [2], < 4.30; in [3] it was 4.57; in the data set with THP-1, 5.68; in [4], < 4.30; in data set [8] it was 4.46. Further, the pIC50 in data set [5] is < 4.30; in [9], 5.31; in data set [6], < 4.30; on Aurora kinase B, 5.06; in data set [10], 5.28; in data set [11], < 4.30. Also, in [7], the pIC50 was < 4.30.
Consider `C[C@@H](Nc1c(Nc2ccn[nH]2)c(=O)c1=O)c1ccccc1`, for which the pIC50 is 4.92 against Cytochrome P450 2C9, 4.40 on Cytochrome P450 3A4 and < 4.00 in [10].
